{"source": "patent US20120141491A1", "about": "“METHODS AND COMPOSITIONS FOR THE TREATMENT OF CANCERS AND PATHOGENIC INFECTIONS” (priority 2009, published 2012)", "type_in_all_cases": "cell-based", "key": {"protein degradation": {"test_system": "protein degradation", "experiment": "Protein degradation by pulse-chase methods using 14C-valine", "settings": "for Rates of protein degradation (FIG. 5B): 14C-valine pulse-chase, compared to a control compound, n=6; for Stimulate Protein Degradation: Table 1; for Proteolysis, bar coding of FIG. 5A: black bar stimulated, striped bar inhibited", "protocol": "(§1) FIGS. 5A-5C. Characterization of proBeclin 1 compounds. Upon ranking 100 NCl compounds by in silico docking to Bcl-xl, the autophagy responses were evaluated in fed Saos-2 cells expressing GFP-LC3 (FIG. 5A). […] Cells were maintained in nutrient-rich medium in the absence and presence of Bcl-targeted compounds for 4 hr. The cells were then solubilized, Beclin 1 complex immunoprecipitated, and the Beclin 1 hound proteins identified by Western blotting (FIG. 5C). The IgG-LC is the immunoglobin light chain of the anti-Beclin 1 antibody that was used to immunoprecipitate the complex. The absence of Bcl-xl is indicative of an inhibition of Beclin 1 binding.\n(§2) When autophagy is suppressed, GFP-LC3 distributes uniformly throughout the cellular cytoplasm (FIG. 4A). Autophagy response can be observed by visualizing the punctuate pattern of GFP-LC3 indicative of the presence of autophagic vacuoles. We can also use tandem-labeled LC3, RFP-GFP-LC3 to better assess the dynamics of the autophagy response by visualizing both autophagosomes and autolysosomes (FIG. 4D-4F). […] To further substantiate that the accumulation of GFP-LC3 structures is not due to a blockage of basal autophagy but the positive effects of the compounds on the autophagy response, the autophagy response is validated by quantitative protein turnover measures using radiolabeled amino acids (FIG. 5B). Finally, we determine whether the compound interferes with Beclin 1 binding to Bcl-xl (FIG. 5C) and Bcl-2 as we would suspect if the compound acts through the intended novel mechanism of action."}, "[1]": {"test_system": "Saos-2 osteosarcoma cells expressing GFP-LC3", "experiment": "Autophagy response by punctate localization of GFP-LC3 to autophagic vacuoles, fluorescence microscopy", "settings": "for Stimulation of autophagy compared with amino acid and serum starved cells (FIG. 2G): 100 μM; for Stimulation of autophagy compared with amino acid and serum starved cells (FIG. 2G) / Enhancement of autophagy (GFP-LC3 at autophagic vacuoles): enriched (Fed) medium; for Activate Autophagy Response: Table 1; for Induction of autophagy: Table 2; for Localization of GFP-LC3 to autophagic vacuoles (FIG. 4): 100 mM Bcl-targeted compounds, fed Saos2 cells", "protocol": "FIGS. 2A-2G. Activation of autophagy by Bcl-XL targeting compounds. The positions of C2 in Site 1 (FIG. 2A), C5 in Site 1 (FIG. 2B), and C8 in Site 2 (FIG. 2C) of Bcl-xl are shown by in silico molecular docking. Saos-2 osteosarcoma cells expressing GFP-LC3 were incubated in enriched (Fed) medium in the presence of C2 (FIG. 2D), C5 (FIG. 2E) and C8 (FIG. 2F) Bcl-targeted compounds. GFP-LC3 is found diffuse throughout the cytosol and nucleus when autophagy is suppressed. Ongoing autophagy can be visualized by the presence of GFP-LC3 at autophagic vacuoles (AVs) that appear as dots (arrows). […] In FIG. 2E, Saos-2 osteosarcoma cells expressing GFP-LC3 were incubated in enriched (Fed) medium in the absence and presence of Bcl-targeted compounds or in medium lacking amino acids and serum (Starved).\n(§3) FIG. 4A-4F. Activation of autophagy by Bcl-targeted compounds. The localization of GFP-LC3 to autophagic vacuoles was enhanced by […] Bcl-targeted compounds in Saos-2 osteosarcoma cells. The autophagy response in fed Saos2 cells was measured in the absence and presence of anti-Bcl compounds by visualizing the punctate localization of GFP-LC3 (FIGS. 4A-4C) and RFP-GFP-LC3 (FIGS. 4D-4F) to autophagic vacuoles. In untreated fed cells, the GFP-LC3 is localized uniformly throughout the cell. […] Autophagy in cells expressing RFP-GFP-LC3 (FIGS. 4D-4F) was activated with compound B2-1. Structures containing RFP (red, FIG. 4D) and GFP (green, FIG. 4E) are autophagosomes (arrow), while RFP (red, FIG. 4D) structures are autolysosomes (arrowhead).\nas §1\nThis was done in Saos-2 osteosarcoma cells stably expressing the autophagosome marker, GFP-LC3. In fed cells not undergoing autophagy GFP-LC3 is a soluble protein found throughout the cytosol. In amino acid and serum starved cells, autophagy is activated and GFP-LC3 becomes associated with autophagic vacuoles that can be visualize by fluorescence microscopy.\nas §2"}, "Beclin 1/Bcl binding": {"test_system": "Beclin 1/Bcl binding", "experiment": "Beclin 1/Bcl binding by immunoprecipitation with anti-Beclin 1 antibodies and Western blotting", "settings": "for Inhibit Beclin 1 Binding: Table 1; for Beclin 1 binding to Bcl-xl / Bcl proteins: nutrient-rich medium, 4 hr", "text": "FIGS. 5A-5C. Characterization of proBeclin 1 compounds. […] Cells were maintained in nutrient-rich medium in the absence and presence of Bcl-targeted compounds for 4 hr. The cells were then solubilized, Beclin 1 complex immunoprecipitated, and the Beclin 1 hound proteins identified by Western blotting (FIG. 5C). The IgG-LC is the immunoglobin light chain of the anti-Beclin 1 antibody that was used to immunoprecipitate the complex.\nAutophagy response can be observed by visualizing the punctuate pattern of GFP-LC3 indicative of the presence of autophagic vacuoles. We can also use tandem-labeled LC3, RFP-GFP-LC3 to better assess the dynamics of the autophagy response by visualizing both autophagosomes and autolysosomes (FIG. 4D-4F). […] Finally, we determine whether the compound interferes with Beclin 1 binding to Bcl-xl (FIG. 5C) and Bcl-2 as we would suspect if the compound acts through the intended novel mechanism of action."}, "NeuT cells": {"test_system": "NeuT cells", "protocol": "(§4) FIGS. 3A-3E. Effects of Bcl-XL targeted small compounds on the autophagy response and cell survival in NeuT cells. The positions of C4 in Site 1 (FIG. 3A), and C9 in Site 2 (FIG. 3B) of Bcl-xl are shown by in silico molecular docking. NeuT (Her2-positive breast cancer cell line) cells expressing GFP-LC3 were incubated in enriched (Fed) medium in the presence of C4 (FIG. 3C) and C9 (FIG. 3D) Bcl-targeted compounds. GFP-LC3 is found on autophagic vacuole that appear as dots (arrows). In FIG. 3E, the survival of NeuT cells was quantified after 20h of treatment with 0.1-1000 μM of Site 1 (C2 and C4) and Site 2 (C7 and C9) compounds.\n(§5) Cell survival is suppressed by Bcl2-targeted compounds: Next, we examined the effects of the Bcl-xl targeted compounds C2, C4, C7, and C9 on autophagy and cell death in Her2/Neu-positive NeuT breast carcinoma cells (FIGS. 3A-E)."}, "[2]": {"test_system": "NeuT (Her2-positive breast cancer cell line) cells expressing GFP-LC3", "experiment": "Autophagy response by GFP-LC3 localization in NeuT cells", "settings": "enriched (Fed) medium", "protocol": "as §4, §5"}, "[3]": {"test_system": "Saos2 cells expressing RFP-GFP-LC3", "experiment": "Autophagy flux with tandem-labeled RFP-GFP-LC3 (autophagosomes and autolysosomes)", "settings": "fed Saos2 cells; listed as B2-1", "protocol": "as §3\nWhen autophagy is suppressed, GFP-LC3 distributes uniformly throughout the cellular cytoplasm (FIG. 4A). Autophagy response can be observed by visualizing the punctuate pattern of GFP-LC3 indicative of the presence of autophagic vacuoles. […] To further substantiate that the accumulation of GFP-LC3 structures is not due to a blockage of basal autophagy but the positive effects of the compounds on the autophagy response, the autophagy response is validated by quantitative protein turnover measures using radiolabeled amino acids (FIG. 5B). […]"}}, "note": "“Also recorded” adds a separate entry of the source. Read-outs that look alike come from different tables or passages of the source.", "data": [{"smiles": "CCCCC(CC)CN1CN(CC(CC)CCCC)CC(C)(N)C1", "note": "(stereo not drawn) [NSC17764, 5-pyrimidinamine, 1,3-bis(2-ethylhexyl)hexhydro-5-methyl-]", "values": [{"measurement": "Rates of protein degradation (FIG. 5B)", "setting": "protein degradation; listed as Bx-11", "value": "suppressed protein degradation; also recorded: inhibit protein degradation"}, {"measurement": "Stimulate Protein Degradation", "setting": "protein degradation", "value": "No"}, {"measurement": "Proteolysis, bar coding of FIG. 5A", "setting": "protein degradation", "value": "inhibited"}, {"measurement": "Stimulation of autophagy compared with amino acid and serum starved cells (FIG. 2G)", "setting": "[1]; listed as C5", "value": "promote autophagy; also recorded: stimulated autophagy to levels seen in amino acid and serum starved cells"}, {"measurement": "Activate Autophagy Response", "setting": "[1]", "value": "Yes"}, {"measurement": "Induction of autophagy", "setting": "[1]", "value": "Induces"}, {"measurement": "Enhancement of autophagy (GFP-LC3 at autophagic vacuoles)", "setting": "[1]; listed as Bx-11", "value": "promotes an accumulation of GFP-LC3 structures; also recorded: promote the accumulation of autophagic vacuoles"}, {"measurement": "Enhancement of autophagy (GFP-LC3 at autophagic vacuoles)", "setting": "[1]; listed as C5", "value": "enhanced autophagy"}, {"measurement": "Inhibit Beclin 1 Binding", "setting": "Beclin 1/Bcl binding", "value": "No"}, {"measurement": "Induction of cell death", "setting": "NeuT cells", "value": "causes cell death"}]}, {"smiles": "Nc1c(/N=N/c2ccc(S(=O)(=O)Nc3cnccn3)cc2)cc(S(=O)(=O)O)c2ccccc12", "note": "[NSC31331]", "values": [{"measurement": "Rates of protein degradation (FIG. 5B)", "setting": "protein degradation", "value": "elevated"}, {"measurement": "Stimulation of autophagy compared with amino acid and serum starved cells (FIG. 2G)", "setting": "[1]", "value": "promote autophagy"}, {"measurement": "Localization of GFP-LC3 to autophagic vacuoles (FIG. 4)", "setting": "[1]", "value": "autophagic vacuoles are visualize as dots or ring-like structures"}, {"measurement": "Activate Autophagy Response", "setting": "[1]", "value": "Yes"}, {"measurement": "Induction of autophagy", "setting": "[1]", "value": "Induces autophagy"}, {"measurement": "Enhancement of autophagy (GFP-LC3 at autophagic vacuoles)", "setting": "[1]", "value": "stimulate autophagy"}, {"measurement": "Autophagy in NeuT cells", "setting": "[2]", "value": "induced autophagy"}, {"measurement": "Inhibit Beclin 1 Binding", "setting": "Beclin 1/Bcl binding", "value": "Yes"}, {"measurement": "Beclin 1 binding to Bcl-xl / Bcl proteins", "setting": "Beclin 1/Bcl binding", "value": "interfere with Beclin 1 binding"}]}, {"smiles": "O=C(C[N+]12CN3CN(CN(C3)C1)C2)c1ccc2ccccc2c1.[Br-]", "note": "[NSC36400]", "values": [{"measurement": "Stimulation of autophagy compared with amino acid and serum starved cells (FIG. 2G)", "setting": "[1]", "value": "promote autophagy"}, {"measurement": "Activate Autophagy Response", "setting": "[1]", "value": "Yes"}, {"measurement": "Induction of autophagy", "setting": "[1]", "value": "Induces autophagy"}, {"measurement": "Autophagy in NeuT cells", "setting": "[2]", "value": "enhanced autophagy"}, {"measurement": "Inhibit Beclin 1 Binding", "setting": "Beclin 1/Bcl binding", "value": "No"}, {"measurement": "Induction of cell death", "setting": "NeuT cells; Table 2, cells not given", "value": "causes cell death"}]}, {"smiles": "CN(C)CCCN1CC2CCCCC2C1", "note": "(stereo not drawn) [NSC43537, 3-(1,3,3a,4,5,6,7,7a-octahydroisoindol-2-yl)-N,N-dimethylpropan-1-amine]", "values": [{"measurement": "Rates of protein degradation (FIG. 5B)", "setting": "protein degradation; listed as B2-1", "value": "elevated; also recorded: stimulate"}, {"measurement": "Stimulate Protein Degradation", "setting": "protein degradation", "value": "Yes"}, {"measurement": "Proteolysis, bar coding of FIG. 5A", "setting": "protein degradation", "value": "stimulated proteolysis"}, {"measurement": "Activate Autophagy Response", "setting": "[1]", "value": "Yes"}, {"measurement": "Induction of autophagy", "setting": "[1]", "value": "NSC 43537 Induces autophagy; not tested for the induction of cell death"}, {"measurement": "Enhancement of autophagy (GFP-LC3 at autophagic vacuoles)", "setting": "[1]", "value": "stimulate autophagy"}, {"measurement": "Autophagy / autophagy flux in cells expressing RFP-GFP-LC3", "setting": "[3]", "value": "activated; also recorded: autophagy flux is enhanced"}, {"measurement": "Inhibit Beclin 1 Binding", "setting": "Beclin 1/Bcl binding", "value": "Yes"}, {"measurement": "Beclin 1 binding to Bcl-xl / Bcl proteins", "setting": "Beclin 1/Bcl binding", "value": "inhibiting Beclin 1 binding"}]}, {"smiles": "Nc1nc(S)c2ncn(C3CC(O)C(COP(=O)(O)O)O3)c2n1", "note": "(stereo not drawn) [NSC94668]", "values": [{"measurement": "Rates of protein degradation (FIG. 5B)", "setting": "protein degradation; listed as Bx-22", "value": "elevated; also recorded: activate"}, {"measurement": "Stimulate Protein Degradation", "setting": "protein degradation", "value": "Yes"}, {"measurement": "Stimulation of autophagy compared with amino acid and serum starved cells (FIG. 2G)", "setting": "[1]", "value": "promote autophagy"}, {"measurement": "Localization of GFP-LC3 to autophagic vacuoles (FIG. 4)", "setting": "[1]", "value": "autophagic vacuoles are visualize as dots or ring-like structures"}, {"measurement": "Activate Autophagy Response", "setting": "[1]", "value": "Yes"}, {"measurement": "Induction of autophagy", "setting": "[1]", "value": "Induces autophagy"}, {"measurement": "Enhancement of autophagy (GFP-LC3 at autophagic vacuoles)", "setting": "[1]", "value": "activate autophagy"}, {"measurement": "Autophagy in NeuT cells", "setting": "[2]", "value": "enhanced autophagy"}, {"measurement": "Inhibit Beclin 1 Binding", "setting": "Beclin 1/Bcl binding", "value": "No"}, {"measurement": "Beclin 1 binding to Bcl-xl / Bcl proteins", "setting": "Beclin 1/Bcl binding; listed as Bx-22", "value": "did not; also recorded: do not appear to affect Beclin 1 binding"}, {"measurement": "Induction of cell death", "setting": "NeuT cells", "value": "causes cell death"}]}]}
